Laboratory results published in ChEMBL document CHEMBL1140432, “Synthesis and biological evaluation of a novel series of "ortho-nitrated" inhibitors of catechol-O-methyltransferase” (J Med Chem, 2005).

Experiments:
[1] = target: T1, Catechol O-methyltransferase (Rattus norvegicus, UniProt P22734); assay: Inhibitory activity against COMT in rat liver
T1 sequence (P22734 whole entry): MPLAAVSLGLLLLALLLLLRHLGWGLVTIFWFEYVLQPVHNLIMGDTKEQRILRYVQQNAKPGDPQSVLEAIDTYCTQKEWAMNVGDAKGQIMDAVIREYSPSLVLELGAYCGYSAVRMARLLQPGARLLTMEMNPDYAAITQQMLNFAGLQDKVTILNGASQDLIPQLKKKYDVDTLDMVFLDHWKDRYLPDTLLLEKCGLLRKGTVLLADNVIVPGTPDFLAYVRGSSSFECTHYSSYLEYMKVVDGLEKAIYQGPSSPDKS

[2] = target: T1, Catechol O-methyltransferase; assay: Inhibitory activity against COMT in rat brain; assay type: tissue-based

`O=C(Cc1ccccc1)c1ccc(O)c(O)c1[N+](=O)[O-]` gave an IC50 [1] of 130 nM and an IC50 [2] of 3 nM.
Compound `O=C(CCc1ccccc1)c1ccc(O)c(O)c1[N+](=O)[O-]` has an IC50 [1] of 2000 nM and an IC50 [2] of 4 nM.
Work on `O=C(CCCc1ccccc1)c1ccc(O)c(O)c1[N+](=O)[O-]` yielded an IC50 [1] of 130 nM and an IC50 [2] of 4 nM.
Work on `O=C(CCCCc1ccccc1)c1ccc(O)c(O)c1[N+](=O)[O-]` yielded an IC50 [1] of 110 nM and an IC50 [2] of 4 nM.
